Test results published in patent US4530840A, “Injectable, long-acting microparticle formulation for the delivery of anti-inflammatory agents” (priority 1982, dated 1985).

Key:
[1] = In vitro release / dissolution of methylprednisolone acetate in 50 wt % aqueous ethanol at 37° C.; format: physicochemical; conditions: unencapsulated
Protocol: The in vitro release of methylprednisolone acetate from microparticles into a receiving fluid comprising 50 wt % of aqueous ethanol maintained at 37° C. was measured.
Triplicate samples of 20 mg of microparticles were weighed and each sample was placed in an 8-oz bottle containing 150 mL of 50 wt % aqueous ethanol. […] Next, the bottles were sealed with a thin sheet of Teflon and a screw cap to prevent evaporation. The bottles were then placed in an Eberbach shaker bath oscillating at 120 cycles/min and maintained at 37° C. The amount of drug released from the microparticles as a function of time was measured by determining the absorbance of the aqueous ethanol receiving fluid at 247 nm and by using the following equation based on Beer's Law.
methylprednisolone acetate in g/ml.

[2] = Saturation solubility in 50 wt % aqueous ethanol; format: physicochemical; conditions: organic solvent or mixture, 50 wt % of aqueous ethanol

Q: Which dissolution complete [1] does the source give for `CC(=O)OCC(=O)[C@@]1(O)CC[C@H]2[C@@H]3C[C@H](C)C4=CC(=O)C=C[C@]4(C)[C@H]3[C@@H](O)C[C@@]21C` [Methylprednisolone acetate, 6α-methylprednisolone acetate] here?
A: 30 min

Q: What about the solubility [2] of the same compound?
A: > 3000 µg/mL
